# Experiments:
# in vivo = conditions: Wistar, rat, sc
# [1] = test system: DA levels in the nucleus accumbens; test: Microdialysis: DA levels in the nucleus accumbens of freely moving rats; format: in vivo, rat; conditions: no amphetamine provocation, data not shown
# [2] = test system: amphetamine-induced hyperactivity in the rat; test: Amphetamine challenge: d-amphetamine induced hyperactivity in rats; format: in vivo; conditions: test substance s.c. 30 min before d-amphetamine sulphate 0.5 mg/kg, motility 2 hours, read-out: Amphetamine antagonism ED50 ± std. dev.
# Source text: D-amphetamine administration to rodents stimulates an increase in locomotor activity via mesolimbic dopamine receptors in the nucleus accumbens. While psychostimulant psychosis may not model all forms of schizophrenia, it may have applicability to paranoid schizophrenia and non-schizophrenic psychotic disorders (Krystal et al. pp. 214-224 in Neurobiology of Mental Illness ISBN 0-19-511265-2). It is believed that inhibition of the amphetamine-induced increase in locomotor activity is a reliable method for the evaluation of compounds with an antipsychotic potential (Ögren et al., European J. Pharmacol. 1984, 102, 459-464). In the following experiment, it was tested if the inhibition of spontaneous DA neurons in the mesolimbic circuit that was assessed above, could be translated into behavioral antipsychotic endpoint.
# Subjects. Male Wistar rats (Taconic, Denmark) weighing 170-240 g are used. The animals were housed under a 12-hr light/dark cycle under controlled conditions for regular in-door temperature (21±2° C.) and humidity (55±5%) with food and tap water available ad libitum. Eight rats were used at each dose level and in the parallel control group receiving the vehicle to the test compound plus d-amphetamine and the group receiving vehicle injections only.
# [3] = test system: DA levels in the nucleus accumbens; test: Microdialysis: DA levels in the nucleus accumbens of freely moving rats; format: in vivo, rat; conditions: 8.1 mg/kg s.c.
# Source text: It is well-known that psychostimulants increase locomotor activity via an increase in extracellular DA levels in the nucleus accumbens, which is the terminal area of the mesolimbic DA projections (Guix et al., 1992, Neurosci. Lett., 138(1), 137-140; Moghaddam et al., 1989, Synapse, 4(2), 156-161). It is also known, that the antagonistic effect of antipsychotics on stimulant-induced hyperlocomotion is related to the effect of antipsychotics to inhibit the stimulated DA levels in the nucleus accumbens (Broderick et al., 2004, Prog. Neuropsychopharmacology and Biol. Psych., 28, 157-171). Thus, the nucleus accumbens is an accepted neuroanatomical site for testing reversal of positive symptoms of psychosis. […] The experiments were conducted such that the data may be associated with the behavioural data obtained above.
# Subjects. Male Sprague-Dawley rats (Charles River), initially weighing 275-300 g, were used. The animals were housed under a 12-hr light/dark cycle under controlled conditions for regular in-door temperature (21±2° C.) and humidity (55±5%) with food and tap water available ad libitum.
# Surgery. Animals were anaesthetized with hypnorm/dormicum (2 ml/kg s.c.) and intracerebral guide cannulas (CMA/12) were stereotaxically implanted, positioning the dialysis probe tip in the nucleus accumbens (co-ordinates: […] anterior to bregma, —1.2 mm lateral to bregma, 8.0 mm ventral to the dura). Anchor screws and acrylic cement was applied for fixation of the guide cannula. The body temperature of the animals was maintained at 37° C. by means of a rectal probe and a heating plate. The rats were allowed to recover from surgery for 2 days, housed singly in cages.
# Experimental procedure. On the day of the experiment, a microdialysis probe (CMA/12, 0.5 mm diameter, 2 mm length) was inserted through the guide cannula of the conscious animal. The probes were connected to a microinjection pump via a dual channel swivel which allowed the animals unrestricted movements. Perfusion of the microdialysis probe with filtered Ringer solution (145 mM NaCl, 3 mM KCl, 1 mM MgCl2, 1.2 mM CaCl2) was maintained for the duration of the experiment at a constant flow rate of 1 μL/min. After 180 min of stabilisation, the experiments were initiated. Dialysates were collected every 20 min. After the experiments the rats were sacrificed by decapitation, their brains removed, frozen and sliced for probe placement verification.
# Administration of compounds. […] Thirty min after the first administration dex-amphetamine sulphate (0.5 mg/kg s.c.) was administered.
# Analysis of dialysate. The concentration of dopamine (DA) in the dialysates was assessed by means of HPLC with electrochemical detection. The dialysate constitutents were separated by reverse phase liquid chromatography (ODS 150×3 mm, […]). Mobile phase consisted of 90 mM NaH2PO4, 50 mM sodium citrate, 367 mg/l sodium 1-octanesulfonic acid, 50 μM EDTA and 8% acetonitrile (pH 4.0) at a flow rate of 0.5 ml/min. Electrochemical detection of DA was accomplished using a coulometric detector; potential set at E1=−75 mV and E2=300 mV (guard cell at 350 mV) (Coulochem II, ESA). The dialysate levels of DA in the three dialyse samples preceding the administration of compound were averaged and used as baseline level of DA (100%)
structure (smiles),measurement,setting,value
CCOC(=O)Nc1ccc(NCc2ccc(F)cc2)cc1N,ED50 at 2 h,in vivo,> 8.1 mg/kg
same,Effect on basal extracellular DA level in the nucleus accumbens,[1],"merely provoked levels of DA were affected, but not basal levels of DA"
same,ED50,[2],2.3 mg/kg
same,"DA level in the nucleus accumbens, amphetamine + compound","[3]; time 0 min, freely moving rats",96 ± 6 % of baseline
same,"DA level in the nucleus accumbens, amphetamine + compound","[3]; time 20 min, amphetamine 0.5 mg/kg s.c. 30 min after compound",160 ± 11 % of baseline
same,"DA level in the nucleus accumbens, amphetamine + compound","[3]; time 40 min, amphetamine 0.5 mg/kg s.c. 30 min after compound",241 ± 33 % of baseline
same,"DA level in the nucleus accumbens, amphetamine + compound","[3]; time 60 min, amphetamine 0.5 mg/kg s.c. 30 min after compound",221 ± 26 % of baseline
same,"DA level in the nucleus accumbens, amphetamine + compound","[3]; time 80 min, amphetamine 0.5 mg/kg s.c. 30 min after compound",217 ± 14 % of baseline
same,"DA level in the nucleus accumbens, amphetamine + compound","[3]; time 100 min, amphetamine 0.5 mg/kg s.c. 30 min after compound",173 ± 9 % of baseline
same,"DA level in the nucleus accumbens, amphetamine + compound","[3]; time 120 min, amphetamine 0.5 mg/kg s.c. 30 min after compound",139 ± 9 % of baseline
same,"DA level in the nucleus accumbens, amphetamine + compound","[3]; time 140 min, amphetamine 0.5 mg/kg s.c. 30 min after compound",120 ± 9 % of baseline
same,"DA level in the nucleus accumbens, amphetamine + compound","[3]; time −20 min, freely moving rats",99 ± 6 % of baseline
same,"DA level in the nucleus accumbens, amphetamine + compound","[3]; time −40 min, freely moving rats",105 ± 3 % of baseline

# Reference: patent US20090118285A1, “USE OF KCNQ-OPENERS FOR TREATING OR REDUCING THE SYMPTOMS OF SCHIZOPHRENIA” (H. Lundbeck A/S, priority 2006, published 2009)
